Key:
Assay type in all cases: in vivo, mouse
[1] = system: CD11b positive blood cells (monocytes/macrophages); assay: Expression analysis of CD11b by flow cytometry in mice administered with MCP-1; conditions: subcutaneous infusion by osmotic pump, 10 ng/0.5 μl/hr over 2 weeks; versus saline-administered control mice; FIG. 10(d)-(f)
Protocol: The analysis using flow cytometry was performed to study how the count of CD11b, which was a surface antigen of macrophages, or blood monocytes would vary upon administration of MCP-1.
Mice were first subcutaneously infused with. MCP-1, using an osmotic pump, at the rate of 10 ng/0.5 μl/hr over 2 weeks. Next, blood was collected from the tail veins of the control mice (C57BL/6), the DIO mice and the MCP-1 treated mice, respectively, using a heparinized capillary. After blood cells were collected from the blood by centrifugation at 300×g for 5 minutes, they were incubated with the FITC-labeled anti-mouse CD11b antibody (BD Biosciences) at room temperature for 15 minutes. The samples were incubated with the IgG2b isotype to serve as a non-specific binding control. After washing these cells with PBS, erythrocytes were lyzed with a lysis buffer at room temperature for 5 minutes. After washing the cells with PBS, the cells were suspended in PBS containing 0.5% formaldehyde. Flow cytometry was performed on this suspension, using an EPCIS Elite Flow Cytometer (Beckman Coulter, Inc.), to identify monocytes. Here, the analysis by flow cytometry was carried out by determining the population of monocytes/macrophages in the whole blood cells. In the flow cytometry 40,000 cells per each sample were analyzed with the fluorescence and scattered light as indices. […]

MCP-1 = assay: Expression of MCP-1 in white adipocytes of mice i.c.v. administered with NPY Y5 agonist (TaqMan PCR); conditions: 5 μg/day i.c.v., non-treated C57BL/6N set to 1
Protocol: Model mice displaying obesity were constructed by the administration of NPY Y5 agonist in the manner described below.
Male mice (9-12 weeks old) (C57BL/6J, CLEA, Inc.) were bred at one animal per plastic cage under the conditions of: room temperature 23±2° C.; and humidity 55±15%. The light-dark cycle during breeding period was set to be 12 hours and the light was put on at 7 a.m. and turned off at 7 p.m. Mice were allowed access to ad lib feed (CE-2 (protein: 25.4 wt. %; carbohydrate: 50.3 wt. %; lipid: 4.4 wt. %), CLEA, Inc.) and water.
Mice were anesthetized with 80 mg/kg of sodium pentobarbital (Dinabott Inc.) and were locally implanted with sterilized 28-gage brain fusion cannulas (Alzet) at their right cerebral ventricles. The cannula was fixed vertically relative to the cranical bone at the position 0.4 mm behind and 0.8 mm side of the bregma and 2 mm deep. The cannula was fixed to the ventricle with dental cement. The cannula was connected to an osmotic pump (model no. 2002 manufactured by Alzet) filled with 10 mM phosphate buffer containing 0.05% bovine serum albumin via a polyvinylchloride tube. […]
The quantitative analysis of the expression amount of MCP-1 was performed by TaqMan PCR, using cDNA obtained from the white adipocytes according to RT-PCR. […]

leptin = assay: Expression of leptin in white adipocytes of mice i.c.v. administered with NPY Y5 agonist; conditions: 5 μg/day i.c.v., non-treated C57BL/6N set to 1

Row | Substance | CD11b positive blood cell count [1] | Expression amount of MCP-1 (MCP-1; Y5 agonist FF (ad lib fed)) | Expression amount of MCP-1 (MCP-1; Y5 agonist PF (pair feeding)) | Expression amount of leptin (leptin; Y5 agonist FF (ad lib fed)) | Expression amount of leptin (leptin; Y5 agonist PF (pair feeding))
1 | MCP-1: monocyte chemotaxis factor protein of the CC chemokine subfamily, subcutaneously infused into mice | increases |  |  |  | 
2 | D-Try^34 NPY [Y5 agonist] |  | 7.67 | 5.16 | 3.53 | 1.77
